According to ChEMBL document CHEMBL1158054, “Cytotoxic monotetrahydrofuran acetogenins from Disepalum plagioneurum” (J Nat Prod, 2006):

The compounds below were run on KB (assay: Cytotoxicity against human KB cells).
Format: functional, cell-based

`CCCCCCCCCCCC[C@@H](O)[C@H]1CC[C@H]([C@H](O)CC(CCCCC(O)CCCCCCCC2=C[C@H](C)OC2=O)OC(C)=O)O1` (some centres undefined) [PLAGIONEURIN A] was tested. Which IC50 did it give?
The IC50 was 2.4 nM.

With `CCCCCCCCCCCC[C@H](O)[C@H]1CC[C@H]([C@@H](O)CC(CCCCC(O)CCCCCCCC2=C[C@H](C)OC2=O)OC(C)=O)O1` (some centres undefined) [PLAGIONEURIN B] as the compound, how does the IC50 read?
Its IC50 is 6.5 nM.

Which IC50 does the source give for `CCCCCCCCCCCC[C@@H](O)[C@H]1CC[C@H]([C@H](O)CC(CCCCC(=O)CCCCCCCC2=C[C@H](C)OC2=O)OC(C)=O)O1` (some centres undefined) [PLAGIONEURIN C] here?
The IC50 was 26 nM.

Which IC50 does the source give for `CCCCCCCCCCCC[C@@H](O)[C@H]1CC[C@H]([C@H](O)CC(CCCCC(=O)CCCC[C@@H](O)CCC2=C[C@H](C)OC2=O)OC(C)=O)O1` (some centres undefined) [PLAGIONEURIN D] here?
The IC50 was 2.8 nM.

`CCCCCCCCCCCC[C@@H](O)[C@H]1CC[C@H]([C@H](O)CC(CCCCC(=O)CCCCC(O)CCC2=C[C@H](C)OC2=O)OC(C)=O)O1` (some centres undefined) [PLAGIONEURIN E] was tested. Which IC50 did it give?
The IC50 was 2.6 nM.

With `CCCCCCCCCCCC[C@@H](O)[C@H]1CC[C@H]([C@H](O)CCCCC(O)CCCC[C@@H](O)CCC2=C[C@H](C)OC2=O)O1` (some centres undefined) [PLAGIONICIN A] as the compound, how does the IC50 read?
Its IC50 is 2 nM.

With `CCCCCCCCCCCC[C@@H](O)[C@H]1CC[C@@H]([C@@H](O)CCCCC(=O)CCCCC(O)CCC2=C[C@H](C)OC2=O)O1` (some centres undefined) [PLAGIONICIN B] as the compound, how does the IC50 read?
The IC50 was 1400 nM.

Which IC50 does the source give for `CCCCCCCCCCCC[C@@H](O)[C@H]1CC[C@@H]([C@@H](O)CCCC(O)CCCCCC(O)C(O)CC2=C[C@H](C)OC2=O)O1` (some centres undefined) [PLAGIONICIN C] here?
The IC50 was 6 nM.

Which IC50 does the source give for `CCCCCCCCCCCC[C@@H](O)[C@H]1CC[C@H]([C@H](O)CCCC(O)C(O)CCCCC(=O)CCC2=C[C@H](C)OC2=O)O1` (some centres undefined) [PLAGIONICIN D] here?
The IC50 was 26 nM.
